Source: PMC9925730, “Controlled sequential in situ self-assembly and disassembly of a fluorogenic cisplatin prodrug for cancer theranostics” (Nature Communications, 2023)
“And” between values parts separate entries of the source, which are not always exact repeats. Equal values may be shown once.

What was measured:
[1] = test system: HeLa cells; experiment: Depletion of intracellular GSH; type: cell-based, human; set-up: key to Intracellular GSH level after treatment (Supplementary Table S2): GSH content in fmol/cell; details: for [GSH] after treatment / [GSH] depletion: HeLa cells, Pt drug 2 h, then fresh medium 24 h; for Intracellular GSH level after treatment (Supplementary Table S2): blank (before treatment) mean 12.88; for GSH-depletion: relative to blank (before treatment)
Description: Supplementary Tables 1-13 Supplementary Table 1. ICP-OES analysis of Pt in HeLa cells. a Pt drugs Pt element per cell Percentage of Pt element (fmol/cell) b taken up by cells (%) c P-CyPt 24.60 ± 3.5 36.9 ± 5.3 […] 1.73 ± 0.2 2.6 ± 0.3 CDDP 0.73 ± 0.09 1.1 ± 0.1 P-CyPt + Na3VO4 0.07 ± 0.01 0.1 ± 0.01 a HeLa cells were untreated or pre-treated with Na3VO4 (10 mM) for 20 min and then incubated with indicated Pt drug (10 μM) for 1 h. Then, the cells were trypsinized, collected, and the cell numbers were counted and digested with trace metal concentrated HNO3 (65~70%) and HCl (36~38%). The amount of Pt element was determined by ICP-OES. b Pt per cell represents the average amount of Pt element in one HeLa cell, which was calculated by dividing the total amount of Pt element in cells by the cell number. c Percentage of Pt taken up by cells was calculated by dividing the total amount of Pt elements in cells by the amount of Pt drugs added. Values denote mean ± s.d. (n = 3 independent experiments). Supplementary Table 2. Comparison of the intracellular GSH in HeLa cells before and after incubation with different Pt drugs. a Pt [GSH] before treatment [GSH] drugs (fmol/cell) [GSH] after treatment (fmol/cell) depletion b CDDP 11.81 ± 1.7 8.3% […] 11.71 ± 1.6 9.1% 12.88 ± 1.5 P-CyPt 8.07 ± 0.8 37.3% a HeLA cells were untreated or treated with different Pt drugs for 2 h. The cells were washed with PBS for three times, and replaced with fresh medium and incubated for another 24 h. After that, the cells were trypsinized, centrifuged and counted. The cell pellets were dispersed, lysed via sonication, and ultracentrifuged to obtain supernatant. The GSH content (nPt) in the supernatant was measured by a reported detection method. The content of GSH per cell ([GSH]) before and after treatment (nB and nA) was calculated according to the formula: […] GSH depletion: The GSH depletion (Δ) was calculated according to the formula: %Δ = (nB - nA)/ nB. Values denote mean ± s.d. (n = 3 independent experiments). 27 page 45: DNA […]-stained with 5x loading buffer in the TAE buffer and the resultant gel visualized by Gel DocTM XR+ (Bio-Rad) system. Depletion of intracellular GSH. HeLa cells (2×10^5 cells/well) in 2 mL DMEM medium were seeded onto 6-well plates and allowed to grow overnight. Then cells were then treated with […], or CDDP (10 μM), respectively. After that, cells were digested with trypsin and washed with PBS for 3 times. Then, cell pellets were dispersed in pre-chilled extraction solution (1 mL, 0.1 M potassium phosphate buffer containing 0.1% Triton, 0.6% sulfosalicylic acid, and 5 mM EDTA, pH 7.4) and sonicated with an US probe on ice for 2 min. To ensure that cells were lysed completely, the solution was further frozen and thawed twice. Finally, the solution was centrifuged at 3000 g at 4 °C for 4 min. The supernatant was taken to measure the GSH content using commercial GSH detection kit, according to a reported procedure (Nat. Protoc. 2006, 1, 3159). MCTS imaging and cytotoxicity. The three-dimensional multicellular spheroids (MCTS) of HeLa were cultured according to the method previously described (Nat. Protoc. 2009, 4, 309) with minor modifications. Briefly, a well of 96-well plates was covered by 50 μL of hot agarose solution (1.5 w/v %) and then cooled to form a layer of agaropectin. HeLa cells were seeded to the agaropectin-coated well at a density of 2×10^3 cells/well, and incubated to grow into spheroids. DMEM medium was replaced with fresh medium every 2 days until the diameter of tumor spheroids grows near 400 μm. Then, the MCSs were incubated with 10 μM P-CyPt or […] for 1 h, washed with PBS for 3 times. Blank DMEM medium was added, and incubated for another 24 h. After that, PI (4 μM) was added and incubated for 1 h. The medium was removed, and the spheroids were gently washed with PBS (×1), which was then carefully transferred to a glass bottom dish. […]

[2] = Body weight of mice with orthotopic HepG2/Luc liver tumors; type: in vivo; details: mean of 3, in g (unit assumed)

Structure (SMILES)	[GSH] after treatment [1] [fmol/cell]	[GSH] depletion [1]	Intracellular GSH level after treatment (Supplementary Table S2) ([1]; individual samples)	Intracellular GSH level after treatment (Supplementary Table S2) ([1]; mean of 3 samples)	GSH-depletion [1] [%]	Body weight of mice (Supplementary Fig. 34) ([2]; time 0 d)	Body weight of mice (Supplementary Fig. 34) ([2]; time 3 d)	Body weight of mice (Supplementary Fig. 34) ([2]; time 6 d)	Body weight of mice (Supplementary Fig. 34) ([2]; time 9 d)	Body weight of mice (Supplementary Fig. 34) ([2]; time 12 d)	Body weight of mice (Supplementary Fig. 34) ([2]; time 15 d)
CC1(C)C(/C=C/C2=C3Oc4cc(OP(=O)(O)O)c(Cl)cc4C=C3CCC2)=[N+](CCCNC(=O)[C@@H](Cc2ccccc2)NC(=O)[C@@H](Cc2ccccc2)NC(=O)CCC(=O)[O][Pt]([NH2])([NH2])([OH])([Cl])[Cl])c2ccccc21 [P-CyPt]	8.07 ± 0.8	37.3% and ~ 37.3%	7.3478 and 7.9326 and 8.9304	8.07	37.30	19.4	19.7033	19.4233	19.8233	20.0233	19.9233
[NH2][Pt]([NH2])([Cl])[Cl] [CDDP, cisplatin]	11.81 ± 1.7	8.3% and ~ 8.3%	10.2784 and 11.5154 and 13.6407	11.81	8.30	20.65	20.2	19.4233	18.65	17.8733	17.5
